From PubChem BioAssay (NCI) come the findings set out here.

Structures are written as SMILES. Values joined by “and” are separate entries in the source; they are usually repeats but may differ in a detail not shown here. Identical values can stand only once.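 These data come from cells grown in 96-well plates and exposed to compound for 48 hours at five concentrations. GI50 marks 50% less growth. TGI denotes the concentration required for complete inhibition of growth.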

Test systems include SW-620 colon; DU-145 prostate; A549 NSCLC; HCT-116 colon; NCI-H226 lung; EKVX NSCLC; SF-295 CNS; SK-MEL-5 melanoma; NCI-H522 lung; BT-549 breast.
Test in all cases: inhibition of tumour cell growth, NCI panel, 48 h

As for `Cc1cc(N2CCN(C)CC2)nc(N(CCNc2ccnc3cc(Cl)ccc23)Cc2ccco2)n1`, the GI50 is 3.04 µM in the experiment on SW-620 colon; 5.94 µM in the experiment with DU-145 prostate; 4.1 µM in the experiment on A549 NSCLC; 2.6 µM in the experiment on HCT-116 colon; 19.6 µM in the experiment with NCI-H226 lung; 5.58 µM in the experiment with EKVX NSCLC. Besides, the GI50 with SF-295 CNS was 1.8 µM; in the experiment on SK-MEL-5 melanoma it was 1.77 µM; with NCI-H522 lung it was 3.51 µM; in the experiment with BT-549 breast, 2.94 µM. The TGI amounted to 12.4 µM in the experiment on SW-620 colon; 19 µM with DU-145 prostate; 14.6 µM in the experiment with A549 NSCLC; 10.4 µM with HCT-116 colon; 37.9 µM with NCI-H226 lung; 19.7 µM in the experiment with EKVX NSCLC. Also, the TGI with SF-295 CNS was 3.79 µM; with SK-MEL-5 melanoma it was 3.24 µM; in the experiment on NCI-H522 lung, 13.3 µM; in the experiment with BT-549 breast, 11.8 µM.
`Cc1cc(NS(=O)(=O)c2ccc(NC(=O)COc3ccc(-c4cc5ccccc5[nH]4)cc3)cc2)no1`: the GI50 in the experiment with SW-620 colon is 1.48 µM; in the experiment with DU-145 prostate it was 2.22 µM; with A549 NSCLC, 2.18 µM; in the experiment with HCT-116 colon it was 1.84 µM; in the experiment with NCI-H226 lung, 2.14 µM; in the experiment with EKVX NSCLC, 2.32 µM. For the same compound, the GI50 with SF-295 CNS is 1.94 µM; with SK-MEL-5 melanoma it was 2.34 µM; in the experiment on NCI-H522 lung it was 1.79 µM; with BT-549 breast it was 2.12 µM. The TGI turned out to be 3.52 µM in the experiment on SW-620 colon; 5.18 µM with DU-145 prostate; 6.39 µM with A549 NSCLC; 5.01 µM in the experiment with HCT-116 colon; 9.88 µM in the experiment on NCI-H226 lung; 8.45 µM with EKVX NSCLC. Besides, the TGI in the experiment on SF-295 CNS worked out at 4.91 µM; in the experiment on SK-MEL-5 melanoma it was 6.84 µM; in the experiment with NCI-H522 lung, 4.09 µM; with BT-549 breast, 5.97 µM.
On to `NC(Cc1ccc(O)cc1)C(=O)N/N=C/c1ccc(N(CCCl)CCCl)cc1` (configuration not stated), for which the GI50 with SW-620 colon is 16 µM; in the experiment with DU-145 prostate, 5.19 µM; in the experiment on A549 NSCLC, 6.39 µM; in the experiment on HCT-116 colon, 21.8 µM; in the experiment on NCI-H226 lung, 3.01 µM; in the experiment with EKVX NSCLC it was 24.2 µM. Moreover, the GI50 in the experiment with SF-295 CNS was 1.37 µM; in the experiment on SK-MEL-5 melanoma, 19.5 µM; in the experiment with NCI-H522 lung, 25.1 µM; in the experiment on BT-549 breast, 19.3 µM. For the same compound, the TGI is over 100 µM with SW-620 colon; 34.7 µM in the experiment on DU-145 prostate; over 100 µM with A549 NSCLC; over 100 µM in the experiment on HCT-116 colon; 31.6 µM in the experiment with NCI-H226 lung; over 100 µM in the experiment on EKVX NSCLC. Besides, the TGI with SF-295 CNS is 6.35 µM; with SK-MEL-5 melanoma it was over 100 µM; with NCI-H522 lung, over 100 µM; with BT-549 breast, over 100 µM.
Regarding `O=C(O)CN(CC(=O)O)c1ccccc1`, the TGI in the experiment with SW-620 colon, with DU-145 prostate, in the experiment on A549 NSCLC, with HCT-116 colon, in the experiment on NCI-H226 lung and in the experiment on EKVX NSCLC was over 100 µM throughout. Also, the TGI in the experiment on SF-295 CNS, in the experiment on SK-MEL-5 melanoma, in the experiment with NCI-H522 lung and in the experiment with BT-549 breast was over 100 µM in each case.
As to `CCc1ccc(Oc2nccc(-c3c(-c4ccc(F)cc4)ncn3C3CCNCC3)n2)cc1`, the GI50 in the experiment on SW-620 colon was 4.35 µM; with DU-145 prostate, 5.83 µM; in the experiment with A549 NSCLC, 5.18 µM; in the experiment with HCT-116 colon, 5.84 µM; in the experiment with NCI-H226 lung, 6.81 µM; in the experiment with EKVX NSCLC, 7.2 µM. Besides, the GI50 in the experiment on SF-295 CNS is 5.52 µM; with SK-MEL-5 melanoma it was 4.22 µM; in the experiment on NCI-H522 lung, 4.73 µM; in the experiment on BT-549 breast, 5.55 µM. Besides, the TGI with SW-620 colon came to 8.74 µM; in the experiment with DU-145 prostate, 14 µM; with A549 NSCLC, 13.3 µM; with HCT-116 colon, 13.9 µM; with NCI-H226 lung, 16.3 µM; in the experiment with EKVX NSCLC it was 14.2 µM. The TGI came out at 12.1 µM in the experiment with SF-295 CNS, 7.71 µM with SK-MEL-5 melanoma, 8.67 µM in the experiment with NCI-H522 lung and 13.1 µM in the experiment on BT-549 breast.
Regarding `CC[C@@]1(O)C(=O)OCc2c1cc1n(c2=O)Cc2cc3c(Cl)c4c(cc3nc2-1)OCO4`, the TGI is over 100 µM with SW-620 colon; over 100 µM with DU-145 prostate; 1.68 µM and 3.7 µM in the experiment on A549 NSCLC; over 100 µM in the experiment on HCT-116 colon; 0.0701 µM with NCI-H226 lung; over 100 µM in the experiment with EKVX NSCLC. In addition, the TGI with SK-MEL-5 melanoma is 0.0323 µM and 0.159 µM; in the experiment with NCI-H522 lung, 7.58 µM and 60.5 µM; in the experiment with BT-549 breast, 0.897 µM and 0.382 µM. In addition, the GI50 in the experiment on DU-145 prostate was under 0.001 µM; in the experiment on A549 NSCLC, under 0.001 µM; in the experiment on HCT-116 colon, 1.1 µM; with NCI-H226 lung it was under 0.001 µM; with EKVX NSCLC, 5.93 µM and 1.91 µM; in the experiment on SF-295 CNS, under 0.001 µM. In addition, the GI50 with SK-MEL-5 melanoma and in the experiment with BT-549 breast was under 0.001 µM in each case.
Take `CCOC(=O)c1c(C(F)(F)F)n([O-])c2ccc(Cl)cc2[n+]1=O`: the GI50 in the experiment on SW-620 colon is 1.87 µM; in the experiment with DU-145 prostate it was 1.93 µM; in the experiment with A549 NSCLC, 4.14 µM; with HCT-116 colon it was 1.86 µM; with NCI-H226 lung it was 2.13 µM; with EKVX NSCLC it was 2.05 µM. Moreover, the GI50 was 1.24 µM in the experiment on SF-295 CNS, 1.51 µM with SK-MEL-5 melanoma, 2.11 µM in the experiment with NCI-H522 lung and 2.02 µM in the experiment on BT-549 breast. Moreover, the TGI in the experiment on SW-620 colon worked out at 3.74 µM; in the experiment on DU-145 prostate, 3.5 µM; with A549 NSCLC, 17.1 µM; in the experiment with HCT-116 colon it was 3.43 µM; in the experiment with NCI-H226 lung, 5.78 µM; with EKVX NSCLC it was 5.14 µM. The TGI was determined as 2.83 µM in the experiment on SF-295 CNS, 2.96 µM in the experiment with SK-MEL-5 melanoma, 4.3 µM in the experiment on NCI-H522 lung and 4.95 µM in the experiment with BT-549 breast.
With `O=C1NC(=O)C(N2CCc3ccccc32)=C1c1ccc(Cl)cc1`, the GI50 in the experiment with SW-620 colon was over 25 µM; with DU-145 prostate it was over 25 µM; in the experiment with A549 NSCLC, over 25 µM; in the experiment on HCT-116 colon it was over 10.2 µM; in the experiment with NCI-H226 lung, over 25 µM; in the experiment with EKVX NSCLC it was over 24.1 µM. The GI50 was over 25 µM with SF-295 CNS, over 23.2 µM in the experiment with SK-MEL-5 melanoma, over 25 µM in the experiment on NCI-H522 lung and over 15.5 µM with BT-549 breast. The TGI is over 25 µM with SW-620 colon; over 25 µM in the experiment with DU-145 prostate; over 25 µM with A549 NSCLC; over 16.6 µM with HCT-116 colon; over 25 µM in the experiment with NCI-H226 lung; over 25 µM in the experiment with EKVX NSCLC. Moreover, the TGI in the experiment with SF-295 CNS, in the experiment on SK-MEL-5 melanoma, in the experiment with NCI-H522 lung and in the experiment with BT-549 breast was over 25 µM throughout.
